Assay results published in ChEMBL document CHEMBL4507296 (2021).

Legend:
[1] = biological target: D(1B) dopamine receptor (Homo sapiens) (UniProt P21918); details: Compound concentration 10.0 uM
[2] = biological target: Myosin-IIIb (Homo sapiens) (UniProt Q8WXR4); details: Compound concentration 1000.0 nM
[3] = biological target: Dual specificity mitogen-activated protein kinase kinase 5 (Homo sapiens) (UniProt Q13163); details: Compound concentration 1000.0 nM
[4] = biological target: Non-receptor tyrosine-protein kinase TNK1 (Homo sapiens) (UniProt Q13470); details: Compound concentration 1000.0 nM
[5] = biological target: Non-receptor tyrosine-protein kinase TYK2 (Homo sapiens) (UniProt P29597); details: Compound concentration 1000.0 nM
[6] = biological target: Serine/threonine-protein kinase MRCK alpha (Homo sapiens) (UniProt Q5VT25); details: Compound concentration 1000.0 nM
[7] = biological target: Delta-type opioid receptor (Homo sapiens) (UniProt P41143); details: Compound concentration 10.0 uM
[8] = biological target: Mitogen-activated protein kinase kinase kinase kinase 2 (Homo sapiens) (UniProt Q12851); details: Compound concentration 1000.0 nM
[9] = biological target: Calcium/calmodulin-dependent protein kinase type IV (Homo sapiens) (UniProt Q16566); details: Compound concentration 1000.0 nM
[10] = biological target: Serine/threonine-protein kinase 38 (Homo sapiens) (UniProt Q15208); details: Compound concentration 1000.0 nM
Chain of Serine/threonine-protein kinase 38 (Homo sapiens) (Q15208 2-465 limits assumed): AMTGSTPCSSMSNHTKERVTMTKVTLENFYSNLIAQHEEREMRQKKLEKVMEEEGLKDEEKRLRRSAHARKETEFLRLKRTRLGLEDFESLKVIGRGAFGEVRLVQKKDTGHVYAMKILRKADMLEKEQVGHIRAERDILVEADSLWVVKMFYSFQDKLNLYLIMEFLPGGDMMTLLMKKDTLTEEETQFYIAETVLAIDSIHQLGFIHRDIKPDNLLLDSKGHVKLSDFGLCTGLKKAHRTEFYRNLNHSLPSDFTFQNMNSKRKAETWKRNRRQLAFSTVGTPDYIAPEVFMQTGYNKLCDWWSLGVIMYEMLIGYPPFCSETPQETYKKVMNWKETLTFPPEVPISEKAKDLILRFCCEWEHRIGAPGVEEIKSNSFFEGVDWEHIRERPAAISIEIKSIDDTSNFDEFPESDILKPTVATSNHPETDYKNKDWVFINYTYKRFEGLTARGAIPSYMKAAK

[11] = biological target: High affinity nerve growth factor receptor (Homo sapiens) (UniProt P04629); details: Compound concentration 1000.0 nM
[12] = biological target: Serine/threonine-protein kinase NLK (Homo sapiens) (UniProt Q9UBE8); details: Compound concentration 1000.0 nM
[13] = tested on: Tyrosine-protein kinase ABL1 (Homo sapiens), P00519 [F317I]; details: Compound concentration 1000.0 nM
[14] = biological target: Serine/threonine-protein kinase MAK (Homo sapiens) (UniProt P20794); details: Compound concentration 1000.0 nM
[15] = tested on: Tyrosine-protein kinase ABL1 (Homo sapiens), P00519 [Y253F]; details: Compound concentration 1000.0 nM
[16] = biological target: Muscle, skeletal receptor tyrosine-protein kinase (Homo sapiens) (UniProt O15146); details: Compound concentration 1000.0 nM
[17] = biological target: 1-phosphatidylinositol 3-phosphate 5-kinase (Homo sapiens) (UniProt Q9Y2I7); details: Compound concentration 1000.0 nM
[18] = biological target: Casein kinase I isoform gamma-3 (Homo sapiens) (UniProt Q9Y6M4); details: Compound concentration 1000.0 nM
[19] = biological target: Epidermal growth factor receptor (Homo sapiens) (UniProt P00533); details: Compound concentration 1000.0 nM
[20] = biological target: Mitogen-activated protein kinase 6 (Homo sapiens) (UniProt Q16659); details: Compound concentration 1000.0 nM
Chain of Mitogen-activated protein kinase 6 (Homo sapiens) (Q16659 whole entry): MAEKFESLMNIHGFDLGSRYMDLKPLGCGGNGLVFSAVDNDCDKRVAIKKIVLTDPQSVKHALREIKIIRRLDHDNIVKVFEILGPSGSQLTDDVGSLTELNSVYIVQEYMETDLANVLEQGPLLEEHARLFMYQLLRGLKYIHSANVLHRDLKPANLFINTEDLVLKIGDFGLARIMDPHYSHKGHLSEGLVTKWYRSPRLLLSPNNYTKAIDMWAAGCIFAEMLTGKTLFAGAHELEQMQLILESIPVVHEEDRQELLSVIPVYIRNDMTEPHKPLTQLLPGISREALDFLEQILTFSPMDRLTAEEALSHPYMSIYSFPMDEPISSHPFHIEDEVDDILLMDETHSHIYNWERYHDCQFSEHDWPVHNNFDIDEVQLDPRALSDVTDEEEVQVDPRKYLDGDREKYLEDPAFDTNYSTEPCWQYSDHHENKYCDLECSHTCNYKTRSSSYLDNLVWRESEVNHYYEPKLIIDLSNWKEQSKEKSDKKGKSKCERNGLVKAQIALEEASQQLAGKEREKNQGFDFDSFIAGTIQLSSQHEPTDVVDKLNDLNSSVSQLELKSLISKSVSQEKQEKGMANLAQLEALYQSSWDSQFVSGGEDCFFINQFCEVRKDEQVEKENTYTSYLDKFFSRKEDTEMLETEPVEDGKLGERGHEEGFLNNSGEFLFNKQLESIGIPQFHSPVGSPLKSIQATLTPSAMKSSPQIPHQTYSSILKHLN

[21] = biological target: Mu-type opioid receptor (Homo sapiens) (UniProt P35372); experiment: m-Opioid (human) CEREP ligand profiling; details: Compound concentration 10.0 uM
[22] = biological target: Serine/threonine-protein kinase TNNI3K (Homo sapiens) (UniProt Q59H18); details: Compound concentration 1000.0 nM
[23] = biological target: Ephrin type-A receptor 8 (Homo sapiens) (UniProt P29322); details: Compound concentration 1000.0 nM
[24] = biological target: Ephrin type-B receptor 3 (Homo sapiens) (UniProt P54753); details: Compound concentration 1000.0 nM
[25] = tested on: Hepatocyte growth factor receptor (Homo sapiens), P08581 [Y1235D]; details: Compound concentration 1000.0 nM
[26] = biological target: Serine/threonine-protein kinase Nek3 (Homo sapiens) (UniProt P51956); details: Compound concentration 1000.0 nM
[27] = biological target: Activin receptor type-1 (Homo sapiens) (UniProt Q04771); details: Compound concentration 1000.0 nM
[28] = biological target: Serine/threonine-protein kinase LATS2 (Homo sapiens) (UniProt Q9NRM7); details: Compound concentration 1000.0 nM
[29] = biological target: Serine/threonine-protein kinase 36 (Homo sapiens) (UniProt Q9NRP7); details: Compound concentration 1000.0 nM
[30] = tested on: ALK tyrosine kinase receptor (Homo sapiens), Q9UM73 [L1196M]; details: Compound concentration 1000.0 nM
[31] = biological target: Mitogen-activated protein kinase 11 (Homo sapiens) (UniProt Q15759); details: Compound concentration 1000.0 nM
Chain of Mitogen-activated protein kinase 11 (Homo sapiens) (Q15759 whole entry): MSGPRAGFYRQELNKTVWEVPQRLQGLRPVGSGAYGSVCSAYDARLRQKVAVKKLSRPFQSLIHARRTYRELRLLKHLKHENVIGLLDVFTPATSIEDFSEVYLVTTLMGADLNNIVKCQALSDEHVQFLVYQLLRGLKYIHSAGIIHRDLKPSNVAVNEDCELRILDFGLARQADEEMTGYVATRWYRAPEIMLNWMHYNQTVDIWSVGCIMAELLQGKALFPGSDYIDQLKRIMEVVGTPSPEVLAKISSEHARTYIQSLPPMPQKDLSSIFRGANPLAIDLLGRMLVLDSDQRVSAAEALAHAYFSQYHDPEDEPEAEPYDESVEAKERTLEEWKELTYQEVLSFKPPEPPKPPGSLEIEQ

[32] = biological target: Mitogen-activated protein kinase kinase kinase 6 (Homo sapiens) (UniProt O95382); details: Compound concentration 1000.0 nM
[33] = biological target: Muscarinic acetylcholine receptor M2 (Homo sapiens) (UniProt P08172); details: Compound concentration 10.0 uM
[34] = biological target: Serine/threonine-protein kinase MARK2 (Homo sapiens) (UniProt Q7KZI7); details: Compound concentration 1000.0 nM
[35] = tested on: Phosphatidylinositol 4,5-bisphosphate 3-kinase catalytic subunit alpha isoform (Homo sapiens), P42336 [H1047Y]; details: Compound concentration 1000.0 nM
Chain of Phosphatidylinositol 4,5-bisphosphate 3-kinase catalytic subunit alpha isoform (Homo sapiens), P42336 [H1047Y] (P42336 whole entry H1047Y, canonical isoform): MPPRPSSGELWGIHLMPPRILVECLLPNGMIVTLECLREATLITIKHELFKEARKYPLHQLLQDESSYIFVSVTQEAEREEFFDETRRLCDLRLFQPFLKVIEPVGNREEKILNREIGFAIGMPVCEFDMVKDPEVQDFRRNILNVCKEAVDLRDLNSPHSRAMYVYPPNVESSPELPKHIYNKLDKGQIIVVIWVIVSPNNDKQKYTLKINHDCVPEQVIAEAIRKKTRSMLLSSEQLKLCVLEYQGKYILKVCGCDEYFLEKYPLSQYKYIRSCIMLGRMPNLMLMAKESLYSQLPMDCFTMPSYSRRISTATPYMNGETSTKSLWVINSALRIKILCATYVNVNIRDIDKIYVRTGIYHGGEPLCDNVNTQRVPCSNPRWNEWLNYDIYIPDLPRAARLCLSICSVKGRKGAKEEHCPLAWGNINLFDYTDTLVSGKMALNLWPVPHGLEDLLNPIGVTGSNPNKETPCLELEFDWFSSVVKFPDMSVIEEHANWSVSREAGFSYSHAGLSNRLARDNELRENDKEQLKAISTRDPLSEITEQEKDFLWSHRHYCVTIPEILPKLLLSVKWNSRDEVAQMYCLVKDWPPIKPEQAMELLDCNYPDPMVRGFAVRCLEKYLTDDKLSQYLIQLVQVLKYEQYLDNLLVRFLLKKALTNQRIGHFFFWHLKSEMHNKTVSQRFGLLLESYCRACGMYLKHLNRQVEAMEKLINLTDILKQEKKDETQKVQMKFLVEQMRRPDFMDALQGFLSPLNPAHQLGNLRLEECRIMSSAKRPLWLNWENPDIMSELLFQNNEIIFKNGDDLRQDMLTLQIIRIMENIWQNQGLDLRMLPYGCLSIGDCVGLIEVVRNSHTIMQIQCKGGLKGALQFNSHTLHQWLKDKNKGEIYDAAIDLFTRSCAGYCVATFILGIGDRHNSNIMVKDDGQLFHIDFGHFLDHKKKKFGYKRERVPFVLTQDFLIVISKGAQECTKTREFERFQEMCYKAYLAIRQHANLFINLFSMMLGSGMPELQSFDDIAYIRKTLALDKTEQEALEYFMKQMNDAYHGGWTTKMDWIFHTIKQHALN

[36] = biological target: Calcium/calmodulin-dependent protein kinase type 1G (Homo sapiens) (UniProt Q96NX5); details: Compound concentration 1000.0 nM
Chain of Calcium/calmodulin-dependent protein kinase type 1G (Homo sapiens) (Q96NX5 whole entry): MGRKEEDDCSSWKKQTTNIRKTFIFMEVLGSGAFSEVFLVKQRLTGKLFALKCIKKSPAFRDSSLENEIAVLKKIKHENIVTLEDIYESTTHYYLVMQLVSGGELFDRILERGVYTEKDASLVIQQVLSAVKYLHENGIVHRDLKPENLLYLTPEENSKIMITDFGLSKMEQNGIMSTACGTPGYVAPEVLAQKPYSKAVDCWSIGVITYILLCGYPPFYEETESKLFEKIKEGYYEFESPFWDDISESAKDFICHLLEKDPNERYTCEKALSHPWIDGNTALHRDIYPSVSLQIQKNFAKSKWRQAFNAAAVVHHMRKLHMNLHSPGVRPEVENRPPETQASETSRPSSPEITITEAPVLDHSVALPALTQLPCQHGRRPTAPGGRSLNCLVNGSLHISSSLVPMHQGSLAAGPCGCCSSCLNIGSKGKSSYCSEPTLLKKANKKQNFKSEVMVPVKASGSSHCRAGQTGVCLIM

[37] = biological target: Serine/threonine-protein kinase 38-like (Homo sapiens) (UniProt Q9Y2H1); details: Compound concentration 1000.0 nM
Chain of Serine/threonine-protein kinase 38-like (Homo sapiens) (Q9Y2H1 2-464 limits assumed): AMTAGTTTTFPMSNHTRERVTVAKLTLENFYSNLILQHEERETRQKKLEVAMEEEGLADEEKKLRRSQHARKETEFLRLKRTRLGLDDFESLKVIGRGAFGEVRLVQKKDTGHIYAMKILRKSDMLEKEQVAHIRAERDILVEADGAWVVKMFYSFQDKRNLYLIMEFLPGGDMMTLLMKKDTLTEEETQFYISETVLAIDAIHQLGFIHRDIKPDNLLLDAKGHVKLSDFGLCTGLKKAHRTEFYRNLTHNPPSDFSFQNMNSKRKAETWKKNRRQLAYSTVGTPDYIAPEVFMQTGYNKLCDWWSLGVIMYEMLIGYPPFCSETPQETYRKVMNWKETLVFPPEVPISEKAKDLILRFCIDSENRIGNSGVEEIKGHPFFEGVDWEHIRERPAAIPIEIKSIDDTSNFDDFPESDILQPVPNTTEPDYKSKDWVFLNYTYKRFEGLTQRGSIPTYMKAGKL

[38] = biological target: Proto-oncogene tyrosine-protein kinase receptor Ret (Homo sapiens) (UniProt P07949); details: Compound concentration 1000.0 nM
[39] = biological target: Mitogen-activated protein kinase kinase kinase 4 (Homo sapiens) (UniProt Q9Y6R4); details: Compound concentration 1000.0 nM
[40] = biological target: Sodium-dependent noradrenaline transporter (Homo sapiens) (UniProt P23975); details: Compound concentration 10.0 uM
[41] = biological target: Histamine H2 receptor (Homo sapiens) (UniProt P25021); details: Compound concentration 10.0 uM
[42] = biological target: Serine/threonine-protein kinase pim-1 (Homo sapiens) (UniProt P11309); details: Compound concentration 1000.0 nM
[43] = tested on: Phosphatidylinositol 4,5-bisphosphate 3-kinase catalytic subunit alpha isoform (Homo sapiens), P42336 [I800L]; details: Compound concentration 1000.0 nM
[44] = biological target: Aurora kinase B (Homo sapiens) (UniProt Q96GD4); details: Compound concentration 1000.0 nM
Chain of Aurora kinase B (Homo sapiens) (Q96GD4 whole entry): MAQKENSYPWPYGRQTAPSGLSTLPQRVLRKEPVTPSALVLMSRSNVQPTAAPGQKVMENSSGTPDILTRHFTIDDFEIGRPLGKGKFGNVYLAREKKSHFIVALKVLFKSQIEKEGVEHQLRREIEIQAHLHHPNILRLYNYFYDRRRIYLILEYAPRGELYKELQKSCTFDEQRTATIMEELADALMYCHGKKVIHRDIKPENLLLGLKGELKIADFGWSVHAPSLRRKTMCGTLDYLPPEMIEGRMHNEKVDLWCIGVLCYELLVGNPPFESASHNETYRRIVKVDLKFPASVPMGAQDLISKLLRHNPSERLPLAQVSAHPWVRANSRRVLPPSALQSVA

[45] = biological target: Wee1-like protein kinase (Homo sapiens) (UniProt P30291); details: Compound concentration 1000.0 nM
Chain of Wee1-like protein kinase (Homo sapiens) (P30291 whole entry, looked up): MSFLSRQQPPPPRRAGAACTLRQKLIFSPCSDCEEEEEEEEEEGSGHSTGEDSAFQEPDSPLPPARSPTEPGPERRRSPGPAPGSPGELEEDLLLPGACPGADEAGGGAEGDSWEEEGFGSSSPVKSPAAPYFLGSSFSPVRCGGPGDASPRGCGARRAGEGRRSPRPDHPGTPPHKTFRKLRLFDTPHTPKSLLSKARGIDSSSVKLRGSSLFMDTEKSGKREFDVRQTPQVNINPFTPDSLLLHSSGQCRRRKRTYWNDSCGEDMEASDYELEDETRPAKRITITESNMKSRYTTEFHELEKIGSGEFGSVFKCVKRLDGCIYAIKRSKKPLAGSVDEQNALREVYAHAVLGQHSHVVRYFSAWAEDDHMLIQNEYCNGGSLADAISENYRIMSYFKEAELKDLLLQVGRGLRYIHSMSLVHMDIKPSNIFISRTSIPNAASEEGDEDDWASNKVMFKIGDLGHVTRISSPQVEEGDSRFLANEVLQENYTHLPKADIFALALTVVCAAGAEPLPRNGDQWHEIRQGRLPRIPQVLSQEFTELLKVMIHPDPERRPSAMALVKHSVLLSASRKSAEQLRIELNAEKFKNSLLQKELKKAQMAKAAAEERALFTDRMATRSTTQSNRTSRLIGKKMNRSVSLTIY

Chain of D(1B) dopamine receptor (Homo sapiens) (P21918 whole entry): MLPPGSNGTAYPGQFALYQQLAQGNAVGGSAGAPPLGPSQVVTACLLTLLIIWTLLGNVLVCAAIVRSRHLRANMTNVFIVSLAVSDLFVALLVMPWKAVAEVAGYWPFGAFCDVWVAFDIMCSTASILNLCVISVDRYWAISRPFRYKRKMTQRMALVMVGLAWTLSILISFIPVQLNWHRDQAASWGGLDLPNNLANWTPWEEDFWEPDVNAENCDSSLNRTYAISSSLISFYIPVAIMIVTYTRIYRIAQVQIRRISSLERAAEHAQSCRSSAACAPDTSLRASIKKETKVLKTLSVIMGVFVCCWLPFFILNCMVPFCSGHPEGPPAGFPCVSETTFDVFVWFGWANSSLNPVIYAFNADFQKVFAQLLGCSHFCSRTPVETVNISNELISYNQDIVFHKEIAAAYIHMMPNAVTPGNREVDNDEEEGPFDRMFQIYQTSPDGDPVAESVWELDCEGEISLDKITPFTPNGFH

C[C@H](c1ccc(F)cc1)N(Cc1cccc(C(=O)O)c1)C(=O)c1cnc2ccccc2c1 [PF-05105679]
inactive: inhibition [1] -1.69% | residual activity [2] 100% | residual activity [3] 92% | residual activity [4] 100% | residual activity [5] 92% | residual activity [6] 100% | inhibition [7] -1.72% | residual activity [8] 100% | residual activity [9] 100% | residual activity [10] 100% | residual activity [11] 100% | residual activity [12] 86% | residual activity [13] 100% | residual activity [14] 100% | residual activity [15] 100% | residual activity [16] 76% | residual activity [17] 100% | residual activity [18] 100% | residual activity [19] 100% | residual activity [20] 100% | inhibition [21] 25% | residual activity [22] 97% | residual activity [23] 76% | residual activity [24] 100% | residual activity [25] 100% | residual activity [26] 87% | residual activity [27] 100% | residual activity [28] 64% | residual activity [29] 100% | residual activity [30] 76% | residual activity [31] 100% | residual activity [32] 84% | inhibition [33] 12.6% | residual activity [34] 80% | residual activity [35] 100% | residual activity [36] 100% | residual activity [37] 100% | residual activity [38] 100% | residual activity [39] 100% | inhibition [40] 2.04% | inhibition [41] -1.14% | residual activity [42] 100% | residual activity [43] 61% | residual activity [44] 100% | residual activity [45] 96%
